Assays:
p58 = target: T1, p58 (Homo sapiens, UniProt P14618); assay: T3 binding in subcellular fractions of A431 cells; conditions: for Specific [125I]T3 bound: 50 ug protein
T1 construct: endogenous in cells; host or cells: A431 cells
Experimental: Overnight cultures of A431 cells (1×10^7 cells/150 mm dish) were washed with 30 ml of PBS (Ca^++ and Mg^++ free). Cells were harvested with a rubber policeman and pelleted. The cell pellet was resuspended in 2 ml of homogenization buffer (0.25M sucrose, 20 mM Tris, 1.1 mM MgCl2, pH 7.85) and homogenized in a tight dounce homogenizer. After centrifugation at 800 xg for 10 min, the supernatant was further centrifuged at 110,000 xg for 90 min at 4° C. (supernatant A). The pellet was resuspended by pipetting in 1 ml of the homogenizing buffer. The suspension was centrifuged at 110,000 xg for 90 min (supernatant B). The pellet was extracted with 1 ml of 3 mM CHAPS by stirring for 30 min. The suspension was centrifuged at 110,000 xg for 90 min (supernatant C).

purified p58 = target: T2, purified p58 (Homo sapiens, UniProt P14618); assay: Binding of [125I]T3 and analogs to purified p58; conditions: competition with [125I]T3, equilibrium conditions
T2 construct: p 58 was purified from A431 cells; endogenous in cells; host or cells: A431 cells (purified native protein)
Experimental: Binding data were analyzed by least squares analysis as described in Horiuchi et al, supra.

T1 sequence (P14618 2-531 limits assumed): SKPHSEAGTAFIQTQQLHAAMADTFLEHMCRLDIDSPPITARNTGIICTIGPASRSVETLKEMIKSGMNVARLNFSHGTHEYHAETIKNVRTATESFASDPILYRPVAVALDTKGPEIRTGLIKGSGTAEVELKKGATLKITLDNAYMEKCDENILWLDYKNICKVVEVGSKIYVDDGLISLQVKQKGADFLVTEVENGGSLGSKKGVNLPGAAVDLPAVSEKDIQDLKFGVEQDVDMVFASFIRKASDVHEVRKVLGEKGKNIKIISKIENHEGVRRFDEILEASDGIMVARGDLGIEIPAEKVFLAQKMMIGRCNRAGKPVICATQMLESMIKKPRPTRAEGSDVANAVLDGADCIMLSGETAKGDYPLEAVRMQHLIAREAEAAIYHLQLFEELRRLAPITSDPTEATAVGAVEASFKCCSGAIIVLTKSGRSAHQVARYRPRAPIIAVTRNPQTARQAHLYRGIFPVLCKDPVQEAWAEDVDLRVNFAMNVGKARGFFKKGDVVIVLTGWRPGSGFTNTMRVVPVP
T2 sequence (P14618 whole entry): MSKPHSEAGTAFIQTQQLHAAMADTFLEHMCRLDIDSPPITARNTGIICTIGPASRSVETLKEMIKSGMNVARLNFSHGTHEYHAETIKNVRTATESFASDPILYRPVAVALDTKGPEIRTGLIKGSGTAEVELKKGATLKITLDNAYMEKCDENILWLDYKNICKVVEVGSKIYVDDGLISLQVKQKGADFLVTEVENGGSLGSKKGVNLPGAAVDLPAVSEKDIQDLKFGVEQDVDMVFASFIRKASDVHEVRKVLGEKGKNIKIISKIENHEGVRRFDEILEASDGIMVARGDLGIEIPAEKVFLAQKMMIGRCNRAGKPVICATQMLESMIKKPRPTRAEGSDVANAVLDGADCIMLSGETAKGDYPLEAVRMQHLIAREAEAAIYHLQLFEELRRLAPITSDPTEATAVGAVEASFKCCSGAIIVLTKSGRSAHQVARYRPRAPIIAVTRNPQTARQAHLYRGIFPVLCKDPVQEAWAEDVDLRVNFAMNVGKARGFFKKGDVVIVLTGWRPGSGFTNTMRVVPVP

N[C@@H](Cc1cc(I)c(Oc2ccc(O)c(I)c2)c(I)c1)C(=O)O [[^125 I]T3]
Specific [125I]T3 bound, % of total (p58; 110,000 xg Pellet): 6 % of total
Specific [125I]T3 bound (p58; 110,000 xg Pellet): 0.17 dpm(× 10^-4)
Specific [125I]T3 bound, % of total (p58; 110,000 xg Supernatant): 94 % of total
Specific [125I]T3 bound (p58; 110,000 xg Supernatant): 2.5 dpm(× 10^-4)

N[C@@H](Cc1ccc(Oc2cc(I)c(O)c(I)c2)c(I)c1)C(=O)O [reverse-T3]
affinity for p58, fold less than that of T3 (purified p58): 10 fold

N[C@@H](Cc1cc(I)c(Oc2cc(I)c(O)c(I)c2)c(I)c1)C(=O)O [T4]
affinity for p58 compared with T3 (purified p58): affinity similar to that of T3
